Assay results from patent US8975398B2, “NAMPT inhibitors” (AbbVie Inc., priority 2012, dated 2015).

Key:
[1] = biological target: NAMPT (human, recombinant, C-terminally His-tagged) (Homo sapiens, UniProt P43490); assay: Time-Resolved Fluorescence Resonance Energy Transfer (TR-FRET) Binding Assay of NAMPT; details: 6.8 nM NAMPT, 200 nM probe, equilibrated 3 hours, absence of substrates
Summary of the method: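 Recombinant C-terminally His-tagged human NAMPT (6.8 nM) incubated 3 h at room temperature with 200 nM Oregon Green 488–labelled nicotinamide-competitive probe and 1 nM Tb-anti-His antibody in HEPES pH 7.5, 2% DMSO. TR-FRET ratio Em520/Em495 normalized to controls; IC50 from four-parameter logistic fit.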

NAMPT = NAMPT (Homo sapiens, UniProt P43490); assay: Time-Resolved Fluorescence Resonance Energy Transfer (TR-FRET) Binding Assay of NAMPT with PRPP; details: 2 nM NAMPT, 2 nM probe, 200 uM PRPP and 2.5 mM ATP, equilibrated 16 hours
NAMPT, sequence (P43490 whole entry): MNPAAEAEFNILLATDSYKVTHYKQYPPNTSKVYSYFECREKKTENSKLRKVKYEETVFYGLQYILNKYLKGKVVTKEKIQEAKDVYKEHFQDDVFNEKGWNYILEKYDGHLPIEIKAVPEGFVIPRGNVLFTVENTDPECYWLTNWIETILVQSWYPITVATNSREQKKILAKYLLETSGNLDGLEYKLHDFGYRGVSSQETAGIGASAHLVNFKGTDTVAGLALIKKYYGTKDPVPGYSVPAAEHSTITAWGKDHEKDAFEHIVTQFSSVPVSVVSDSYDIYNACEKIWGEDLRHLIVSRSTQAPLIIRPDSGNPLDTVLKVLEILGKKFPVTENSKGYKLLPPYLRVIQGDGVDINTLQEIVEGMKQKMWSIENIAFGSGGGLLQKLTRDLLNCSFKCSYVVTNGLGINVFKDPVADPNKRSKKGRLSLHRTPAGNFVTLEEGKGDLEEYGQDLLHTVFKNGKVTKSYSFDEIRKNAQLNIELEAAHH
Summary of the method: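 Final mix: 2 nM NAMPT, 2 nM probe, 1 nM Tb-anti-His antibody, 200 uM PRPP, 2.5 mM ATP, 2% DMSO in 1× assay buffer. Equilibrated 16 hours before TR-FRET read, allowing possible enzymatic modification of compounds.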

NAMPT (human, recombinant, C-terminally His-tagged), sequence (P43490 whole entry): as above

| IC50 [1] | IC50 (NAMPT) | SMILES |
| --- | --- | --- |
| 12.1 nM | 18.2 nM | O=C(Nc1ccc(OC2CN(C(=O)C(F)(F)c3ccccc3)C2)cc1)C1CN(c2ccnnc2)C1 [Example 201, N-[4-({1-[difluoro(phenyl)acetyl]azetidin-3-yl}oxy)phenyl]-1-(pyridazin-4-yl)azetidine-3-carboxamide] |
| 117 nM | 89.5 nM | O=C(Nc1ccc(OC2CN(C(=O)C3CCC(F)(F)CC3)C2)cc1)C1CN(c2ccnnc2)C1 [Example 202, N-[4-({1-[(4,4-difluorocyclohexyl)carbonyl]azetidin-3-yl}oxy)phenyl]-1-(pyridazin-4-yl)azetidine-3-carboxamide] |
| 34.2 nM | 21.1 nM | O=C(Nc1ccc(OC2CN(C(=O)Cc3ccc(F)cc3)C2)cc1)C1CN(c2ccnnc2)C1 [Example 203, N-[4-({1-[(4-fluorophenyl)acetyl]azetidin-3-yl}oxy)phenyl]-1-(pyridazin-4-yl)azetidine-3-carboxamide] |
| 380 nM | 2.76 nM | O=C(Nc1ccc(C2CCN(C(=O)CC3CCCC3)CC2)cc1)[C@H]1CCN(c2cccnc2)C1 [Example 204, (3S)—N-{4-[1-(cyclopentylacetyl)piperidin-4-yl]phenyl}-1-(pyridin-3-yl)pyrrolidine-3-carboxamide] |
| 25.1 nM | 34 nM | O=C(Nc1ccc(OC2CN(C(=O)c3ccc(C(F)(F)F)cc3)C2)cc1)C1CN(c2ccnnc2)C1 [Example 205, 1-(pyridazin-4-yl)-N-[4-({1-[4-(trifluoromethyl)benzoyl]azetidin-3-yl}oxy)phenyl]azetidine-3-carboxamide] |
| 23.8 nM | 24.1 nM | O=C(Nc1ccc(OC2CN(C(=O)c3ccccc3)C2)cc1)C1CN(c2ccnnc2)C1 [Example 206, N-{4-[(1-benzoylazetidin-3-yl)oxy]phenyl}-1-(pyridazin-4-yl)azetidine-3-carboxamide] |
| 141 nM | 86.7 nM | CC(C)(O)C(=O)N1CC(Oc2ccc(NC(=O)C3CN(c4ccnnc4)C3)cc2)C1 [Example 207, N-(4-{[1-(2-hydroxy-2-methylpropanoyl)azetidin-3-yl]oxy}phenyl)-1-(pyridazin-4-yl)azetidine-3-carboxamide] |
| 117 nM | 49.6 nM | O=C(Nc1ccc(OC2CN(C(=O)C3CCOC3)C2)cc1)C1CN(c2ccnnc2)C1 (stereo not drawn) [Example 208, 1-(pyridazin-4-yl)-N-(4-{[1-(tetrahydrofuran-3-ylcarbonyl)azetidin-3-yl]oxy}phenyl)azetidine-3-carboxamide] |
| 61.7 nM | 28.9 nM | O=C(Nc1ccc(OC2CN(C(=O)c3ccoc3)C2)cc1)C1CN(c2ccnnc2)C1 [Example 209, N-(4-{[1-(furan-3-ylcarbonyl)azetidin-3-yl]oxy}phenyl)-1-(pyridazin-4-yl)azetidine-3-carboxamide] |
| 31.7 nM | 38.3 nM | CCCCC(=O)N1CC(Oc2ccc(NC(=O)C3CN(c4ccnnc4)C3)cc2)C1 [Example 210, N-{4-[(1-pentanoylazetidin-3-yl)oxy]phenyl}-1-(pyridazin-4-yl)azetidine-3-carboxamide] |
| 31.9 nM | 0.801 nM | O=C(Nc1ccc(OC2CCN(C(=O)c3ccccc3Cl)CC2)cc1)C1CN(c2cccnn2)C1 [Example 211, N-(4-{[1-(2-chlorobenzoyl)piperidin-4-yl]oxy}phenyl)-1-(pyridazin-3-yl)azetidine-3-carboxamide] |
| 70.4 nM | 0.787 nM | CC[C@H](C)C(=O)N1CCC(Oc2ccc(NC(=O)C3CN(c4cccnn4)C3)cc2)CC1 [Example 212, N-[4-({1-[(2S)-2-methylbutanoyl]piperidin-4-yl}oxy)phenyl]-1-(pyridazin-3-yl)azetidine-3-carboxamide] |
| 104 nM | 0.678 nM | O=C(Nc1ccc(OC2CCN(C(=O)c3nccs3)CC2)cc1)C1CN(c2cccnn2)C1 [Example 213, 1-(pyridazin-3-yl)-N-(4-{[1-(1,3-thiazol-2-ylcarbonyl)piperidin-4-yl]oxy}phenyl)azetidine-3-carboxamide] |
| 165 nM | 0.841 nM | O=C(Nc1ccc(OC2CCN(C(=O)C3CCOCC3)CC2)cc1)C1CN(c2cccnn2)C1 [Example 214, 1-(pyridazin-3-yl)-N-(4-{[1-(tetrahydro-2H-pyran-4-ylcarbonyl)piperidin-4-yl]oxy}phenyl)azetidine-3-carboxamide] |
| 68.2 nM | 1.14 nM | O=C(Nc1ccc(OC2CCN(C(=O)C(F)(F)c3ccccc3)CC2)cc1)C1CN(c2cccnn2)C1 [Example 215, N-[4-({1-[difluoro(phenyl)acetyl]piperidin-4-yl}oxy)phenyl]-1-(pyridazin-3-yl)azetidine-3-carboxamide] |
| 228 nM | 1.41 nM | O=C(Nc1ccc(OC2CCN(C(=O)C3CCC(F)(F)CC3)CC2)cc1)C1CN(c2cccnn2)C1 [Example 216, N-[4-({1-[(4,4-difluorocyclohexyl)carbonyl]piperidin-4-yl}oxy)phenyl]-1-(pyridazin-3-yl)azetidine-3-carboxamide] |
| 43.9 nM | 1.51 nM | CC(C)(C(=O)N1CCC(Oc2ccc(NC(=O)C3CN(c4cccnn4)C3)cc2)CC1)c1ccccc1 [Example 217, N-(4-{[1-(2-methyl-2-phenylpropanoyl)piperidin-4-yl]oxy}phenyl)-1-(pyridazin-3-yl)azetidine-3-carboxamide] |
| 265 nM | 1.64 nM | O=C(Nc1ccc(OC2CCN(C(=O)c3cscn3)CC2)cc1)C1CN(c2cccnn2)C1 [Example 218, 1-(pyridazin-3-yl)-N-(4-{[1-(1,3-thiazol-4-ylcarbonyl)piperidin-4-yl]oxy}phenyl)azetidine-3-carboxamide] |
| 105 nM | 0.48 nM | Cc1ccc(C(=O)N2CCC(Oc3ccc(NC(=O)C4CN(c5cccnn5)C4)cc3)CC2)s1 [Example 219, N-[4-({1-[(5-methylthiophen-2-yl)carbonyl]piperidin-4-yl}oxy)phenyl]-1-(pyridazin-3-yl)azetidine-3-carboxamide] |
| 267 nM | 1.01 nM | O=C(Nc1ccc(OC2CCN(C(=O)Cc3ccc(C(F)(F)F)cc3)CC2)cc1)C1CN(c2cccnn2)C1 [Example 220, 1-(pyridazin-3-yl)-N-{4-[(1-{[4-(trifluoromethyl)phenyl]acetyl}piperidin-4-yl)oxy]phenyl}azetidine-3-carboxamide] |
| 164 nM | 0.576 nM | O=C(Nc1ccc(OC2CCN(C(=O)C3CCCO3)CC2)cc1)C1CN(c2cccnn2)C1 (stereo not drawn) [Example 221, 1-(pyridazin-3-yl)-N-(4-{[1-(tetrahydrofuran-2-ylcarbonyl)piperidin-4-yl]oxy}phenyl)azetidine-3-carboxamide] |
| 215 nM | 1.03 nM | O=C(Nc1ccc(OC2CCN(C(=O)c3cccc(C(F)(F)F)c3)CC2)cc1)C1CN(c2cccnn2)C1 [Example 222, 1-(pyridazin-3-yl)-N-[4-({1-[3-(trifluoromethyl)benzoyl]piperidin-4-yl}oxy)phenyl]azetidine-3-carboxamide] |
| 150 nM | 0.959 nM | O=C(Nc1ccc(OC2CCN(C(=O)c3ccsc3)CC2)cc1)C1CN(c2cccnn2)C1 [Example 223, 1-(pyridazin-3-yl)-N-(4-{[1-(thiophen-3-ylcarbonyl)piperidin-4-yl]oxy}phenyl)azetidine-3-carboxamide] |
| 151 nM | 1.39 nM | O=C(Nc1ccc(OC2CCN(C(=O)c3cccc(OC(F)(F)F)c3)CC2)cc1)C1CN(c2cccnn2)C1 [Example 224, 1-(pyridazin-3-yl)-N-[4-({1-[3-(trifluoromethoxy)benzoyl]piperidin-4-yl}oxy)phenyl]azetidine-3-carboxamide] |
| 158 nM | 1.07 nM | CC(C)CC(=O)N1CCC(Oc2ccc(NC(=O)C3CN(c4cccnn4)C3)cc2)CC1 [Example 225, N-(4-{[1-(3-methylbutanoyl)piperidin-4-yl]oxy}phenyl)-1-(pyridazin-3-yl)azetidine-3-carboxamide] |
| 242 nM | 0.896 nM | O=C(Nc1ccc(OC2CCN(C(=O)C3CCOC3)CC2)cc1)C1CN(c2cccnn2)C1 (stereo not drawn) [Example 226, 1-(pyridazin-3-yl)-N-(4-{[1-(tetrahydrofuran-3-ylcarbonyl)piperidin-4-yl]oxy}phenyl)azetidine-3-carboxamide] |
| 65.9 nM | 0.696 nM | O=C(Nc1ccc(OC2CCN(C(=O)Cc3cccc(F)c3)CC2)cc1)C1CN(c2cccnn2)C1 [Example 227, N-[4-({1-[(3-fluorophenyl)acetyl]piperidin-4-yl}oxy)phenyl]-1-(pyridazin-3-yl)azetidine-3-carboxamide] |
| 54.6 nM | 0.911 nM | O=C(Nc1ccc(OC2CCN(C(=O)c3ccccc3F)CC2)cc1)C1CN(c2cccnn2)C1 [Example 228, N-(4-{[1-(2-fluorobenzoyl)piperidin-4-yl]oxy}phenyl)-1-(pyridazin-3-yl)azetidine-3-carboxamide] |
| 48 nM | 0.584 nM | O=C(Nc1ccc(OC2CCN(C(=O)c3ccc(F)cc3F)CC2)cc1)C1CN(c2cccnn2)C1 [Example 229, N-(4-{[1-(2,4-difluorobenzoyl)piperidin-4-yl]oxy}phenyl)-1-(pyridazin-3-yl)azetidine-3-carboxamide] |
| 158 nM | 0.843 nM | O=C(Nc1ccc(OC2CCN(C(=O)c3ccc(F)cc3)CC2)cc1)C1CN(c2cccnn2)C1 [Example 230, N-(4-{[1-(4-fluorobenzoyl)piperidin-4-yl]oxy}phenyl)-1-(pyridazin-3-yl)azetidine-3-carboxamide] |
